In paper PMC2920594 (Journal of the American Chemical Society, 2010):
In brackets after ≈: the same amount, converted by molar mass.

Biological target: FtsZ (Escherichia coli, UniProt P0A9A6)
Assay: STD NMR and STD NMR competition with GTPγS
Type: biochemical

FtsZ, sequence (P0A9A6 whole entry): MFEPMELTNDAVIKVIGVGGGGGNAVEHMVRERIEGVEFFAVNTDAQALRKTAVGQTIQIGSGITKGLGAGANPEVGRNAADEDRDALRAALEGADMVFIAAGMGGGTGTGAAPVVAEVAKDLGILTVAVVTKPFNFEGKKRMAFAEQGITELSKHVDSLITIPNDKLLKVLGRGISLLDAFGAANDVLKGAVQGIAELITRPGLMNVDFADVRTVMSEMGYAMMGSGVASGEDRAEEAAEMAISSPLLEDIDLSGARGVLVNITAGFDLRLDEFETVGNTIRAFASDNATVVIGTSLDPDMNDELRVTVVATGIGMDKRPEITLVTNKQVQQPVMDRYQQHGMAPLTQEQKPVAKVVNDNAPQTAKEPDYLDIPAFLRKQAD

Structure (SMILES): Oc1cc(O)c2c(c1)C/C(Cl)=C\Cc1cc(c(Cl)cc1O)Oc1c(O)cc(cc1O)C/C(Cl)=C\Cc1cc(c(Cl)cc1O)O2 [compound 1, chrysophaentin A]
- IC50: 6.7 ± 1.7 µg/mL (≈ 9.88 µM)
